Reference: patent US10765664B2, “Treatment of infectious diseases” (CHILDREN'S MEDICAL CENTER CORPORATION, priority 2015, dated 2020)
Where two headings read alike, the source gives them in different places.

Columns and labels:
[1] = tested on: IFITM3; assay: IFITM3 mRNA in THP-1 cells stimulated with cytokines or TLR agonists, real time PCR; format: cell-based, human; conditions: for IFITM3 mRNA induction: data not shown (Example 3)
[2] = tested on: HIV; format: cell-based; conditions: MDM or AM/lymphocyte system; expected
[3] = tested on: H37Rv-mCherry MTb; format: cell-based, Mycobacterium tuberculosis; conditions: concentration-dependent; 0, 5, 10, 15, or 20 μM NTZ pretreatment
[4] = tested on: HIV LTR; format: cell-based
[5] = tested on: influenza; conditions: in vivo; cited from earlier work
[6] = tested on: HIV-1Bal/ZsGreen1; format: cell-based; conditions: pretreatment with 1 μM NTZ
[7] = target: PKR (Homo sapiens, UniProt P19525); conditions: hepatoma cells; cited from earlier work
[8] = tested on: X4-tropic HIV; conditions: human PBMC, with glucocorticoids; cited from earlier work
[9] = tested on: MTb; conditions: by inhibiting the mTOR pathway; cited from earlier work
[10] = tested on: nonreplicating MTb; conditions: cited from earlier work
[11] = tested on: PKR; assay: PKR gene transcription in HeLa cells; format: cell-based, human
[12] = tested on: MTb-infected THP-1 cells and human monocytes; conditions: through inhibition of NQO1; cited from earlier work
[13] = tested on: Zaire ebolavirus GP-pseudotyped lentivirus; assay: organism not typed; format: cell-based
[14] = tested on: HCV; conditions: added to ribavirin plus pegylated IFN; cited from earlier work
[15] = tested on: RIG-I; assay: RIG-I gene transcription in HeLa cells; format: cell-based, human
[16] = tested on: THP-1 cells; assay: Cellular acidification of THP-1 cells, Lysotracker Red flow cytometry; conditions: 24 hrs
[17] = tested on: HIV LTR; format: cell-based; conditions: for HIV transcriptional activation (LTR-Renilla): NTZ 5 or 10 μM pretreatment
[18] = tested on: live Ebola virus; format: cell-based
[19] = tizoxanide after a 500 mg dose of NTZ; cited from earlier work
[20] = in vivo; cited from earlier work
[21] = in vivo; cited from earlier work; remark: listed apart in the source

PKR (Homo sapiens, UniProt P19525), sequence (P19525 whole entry): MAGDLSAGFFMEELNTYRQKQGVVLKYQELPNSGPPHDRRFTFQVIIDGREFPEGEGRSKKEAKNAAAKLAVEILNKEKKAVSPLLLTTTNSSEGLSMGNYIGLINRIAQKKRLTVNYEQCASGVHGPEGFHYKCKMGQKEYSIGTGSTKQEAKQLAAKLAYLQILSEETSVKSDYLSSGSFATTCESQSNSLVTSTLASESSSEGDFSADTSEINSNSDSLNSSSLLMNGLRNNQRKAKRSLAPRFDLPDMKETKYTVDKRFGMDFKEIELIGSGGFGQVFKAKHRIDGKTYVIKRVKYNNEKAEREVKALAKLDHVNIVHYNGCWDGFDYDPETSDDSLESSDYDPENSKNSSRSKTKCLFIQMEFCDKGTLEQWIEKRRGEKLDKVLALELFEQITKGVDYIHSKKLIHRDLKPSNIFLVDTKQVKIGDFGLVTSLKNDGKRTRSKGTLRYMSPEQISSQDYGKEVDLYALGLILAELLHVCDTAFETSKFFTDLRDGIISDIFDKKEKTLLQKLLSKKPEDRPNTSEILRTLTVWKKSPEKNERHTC

## Pam3Cys
[1]; THP-1 cells, TLR agonist 100 ng/ml, 24 and 48 hours
  IFITM3 gene expression: significantly induced

## IFN-γ: IFN-γ treatment
[1]
  IFITM3 mRNA induction: strongly induced

## CC(=O)Oc1ccccc1C(=O)Nc1ncc([N+](=O)[O-])s1 [NTZ, [2-[(5-nitro-1,3-thiazol-2-yl)carbamoyl]phenyl] ethanoate]
[2]
  MTb augmentation of HIV replication: suppressed
[3]
  MTb infection of THP-1 cells: potently inhibits
[4]; TLR2 agonist Pam3Cys, 10 μM NTZ, 6 hrs
  LTR reactivation (ZsGreen1): reduces
[4]; direct MTb infection, 6 hours
  LTR reactivation (ZsGreen1): reduces
[5]
  treatment of uncomplicated influenza: efficacy
[6]
  HIVBALZsGreen1 infection of MDM: suppresses
[7]
  autophosphorylation of PKR: directly induces
[8]
  suppression of X4-tropic HIV replication: synergizes
[9]
  MTb proliferation: suppress
[10]
  reduction of viable, nonreplicating MTb: over 2 log units
[11]
  transcription of PKR gene: induce
[12]
  autophagy: promotes autophagy
[13]
  infection by Zaire Ebolavirus GP-pseudotyped lentiviral particles: inhibits
[13]; THP-1, read-out: inhibition of ZE-LV infection
  inhibition at 8 µM: ~40%
[14]
  HCV virological response: significantly improve
[15]
  transcription of RIG-I gene: induce
[16]
  intracellular acidity: increased intracellular acidity
[17]; MTb infection, not shown
  activation of the integrated LTR-Renilla reporter gene: significantly inhibits
[17]; Sendai virus infection
  HIV transcriptional activation (LTR-Renilla): inhibited
[17]; stimulation with TLR2 agonist Pam3Cys
  HIV transcriptional activation (LTR-Renilla): inhibited
[18]
  inhibition of live Ebola virus: inhibit

## MCP-1: MCP-1 cytokine treatment
[1]
  IFITM3 mRNA induction: not induced

## IL-1β: recombinant IL-1β
[1]; THP-1 cells, by 48 hrs
  IFITM3 mRNA vs untreated control cells: significantly elevated

## O=C(Nc1ncc([N+](=O)[O-])s1)c1ccccc1O [tizoxanide]
[19]
  peak mean plasma concentration: 26 µM

## CC(=O)Oc1ccccc1C(=O)Nc1ncc(Cl)s1 [RM-5038]
[20]
  tolerability compared to NTZ: better tolerated
[21]
  absorption in the GI tract compared to NTZ: better absorbed

## IL-6: recombinant IL-6
[1]; THP-1 cells, by 24 hours post-stimulation
  IFITM3 transcript levels: significant increase
